Conditions: Fluid (supercritical or subcritical phases), Cylindrical cavity resonance method

C[Si]1(C)O[Si](C)(C)O[Si](C)(C)O[Si](C)(C)O[Si](C)(C)O1 [decamethylcyclopentasiloxane]
Conditions	speed of sound [m/s]
485 K, 35.39 kPa	101.91
485 K, 43.63 kPa	101.14
485 K, 49.43 kPa	100.67
485 K, 55.24 kPa	100.36
485 K, 63.6 kPa	99.2
485 K, 64.42 kPa	99.13
485 K, 74.85 kPa	98.38
485 K, 82.92 kPa	97.28
485 K, 85.12 kPa	97.17
500 K, 22.13 kPa	104.94
500 K, 22.48 kPa	104.92
500 K, 26.3 kPa	104.68
500 K, 31.33 kPa	104.22
500 K, 32.27 kPa	104.14
500 K, 33.93 kPa	103.96
500 K, 39.9 kPa	103.53
500 K, 42.7 kPa	103.27
500 K, 47.88 kPa	102.87
500 K, 51.58 kPa	102.58
500 K, 55.42 kPa	102.2
500 K, 64.64 kPa	101.5
500 K, 64.96 kPa	101.44
500 K, 73.64 kPa	100.81
500 K, 74.95 kPa	100.63
500 K, 78.98 kPa	100.22
500 K, 85.9 kPa	99.5
500 K, 95.37 kPa	98.56
500 K, 105.42 kPa	97.6
500 K, 116.6 kPa	96.56
510 K, 34.55 kPa	105.2
510 K, 43.26 kPa	104.68
510 K, 51.27 kPa	104.86
510 K, 57.1 kPa	103.49
510 K, 62.78 kPa	103.98
510 K, 72.53 kPa	102.37
510 K, 82.51 kPa	101.58
510 K, 89.89 kPa	100.87
510 K, 92.75 kPa	100.75
510 K, 103.28 kPa	99.89
510 K, 110.69 kPa	99.98

C[Si]1(C)O[Si](C)(C)O[Si](C)(C)O[Si](C)(C)O1 [octamethylcyclotetrasiloxane]
Conditions	speed of sound [m/s]
450 K, 38.9 kPa	110.35
450 K, 46.7 kPa	109.66
450 K, 57.41 kPa	108.8
450 K, 62.89 kPa	108.3
450 K, 69.33 kPa	107.73
465 K, 31.29 kPa	113.04
465 K, 32.63 kPa	112.99
465 K, 36.51 kPa	112.75
465 K, 40.99 kPa	112.32
465 K, 46.84 kPa	111.94
465 K, 47.85 kPa	111.91
465 K, 49.18 kPa	111.72
465 K, 57.21 kPa	111.2
465 K, 58.99 kPa	110.98
465 K, 61.46 kPa	110.82
465 K, 68.51 kPa	110.33
465 K, 70.69 kPa	110.06
465 K, 73.59 kPa	109.87
465 K, 74.87 kPa	109.83
465 K, 77.48 kPa	109.53
465 K, 81.72 kPa	109.28
465 K, 87.87 kPa	108.72
465 K, 92.89 kPa	108.29
465 K, 97.68 kPa	107.96
465 K, 101.01 kPa	107.53
465 K, 105.11 kPa	107.28
465 K, 106.95 kPa	107.18
465 K, 111.4 kPa	106.69
465 K, 116.93 kPa	106.3
465 K, 121.67 kPa	105.76
465 K, 123.48 kPa	105.66
480 K, 42.7 kPa	114.02
480 K, 54.67 kPa	113.2
480 K, 65.08 kPa	112.48
480 K, 71.3 kPa	112.04
480 K, 85.5 kPa	111.07
480 K, 92.46 kPa	110.5
480 K, 109.21 kPa	109.24
480 K, 118.88 kPa	108.49
480 K, 129.21 kPa	107.67
480 K, 140.39 kPa	106.77
480 K, 152.36 kPa	105.77
480 K, 165.42 kPa	104.64
495 K, 27.45 kPa	117.14
495 K, 36.2 kPa	116.66
495 K, 47.54 kPa	115.98
495 K, 143.41 kPa	109.74
495 K, 159.7 kPa	108.43
495 K, 160.4 kPa	108.39
495 K, 174.53 kPa	107.35
495 K, 186.64 kPa	106.44
495 K, 198.61 kPa	105.49
495 K, 224.52 kPa	103.41
